In patent publication US7964531B2, “3-phenoxy-4-pyridazinol derivatives and herbicidal composition containing the same” (Mitsui Chemicals Agro, Inc., priority 2001, dated 2011):

How the values were obtained:
Assay type in all cases: in vivo
Details in all cases: wettable powder applied 3 days after transplanting, judged after 25 days
[1] = test system: Cyperus serotinus; experiment: Test Example 1: herbicidal effects, paddy-field pot test
Method in brief: (§1)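 First, paddy soil was potted and seeded at the surface layer with non-dormant weed seeds; germinated Cyperus serotinus tubers were planted and 2.2-leaf rice transplanted. Three days later, diluted wettable powder was applied under flooding. Inhibition was rated 0–5 after 25 days.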

[2] = test system: barnyardgrass (Echinochloa oryzicola Vasing.); experiment: as above
Method in brief: as §1

[3] = test system: annual broad-leaved weeds (Lindernia spp., Rotala indica); experiment: as above
Method in brief: as §1

[4] = test system: Scirpus joncoides; experiment: as above
Method in brief: as §1

[5] = test system: transplanted paddy-field rice; experiment: Test Example 1: crop injury against transplanted paddy-field rice
Method in brief: as §1

Row | SMILES | Herbicidal effects Cyperus serotinus ([1]; chemical dosage 12.5 g/a) | Herbicidal effects Cyperus serotinus ([1]; chemical dosage 25 g/a) | Herbicidal effects Barnyard grass ([2]; chemical dosage 12.5 g/a) | Herbicidal effects Barnyard grass ([2]; chemical dosage 25 g/a) | Herbicidal effects Broad leaf ([3]; chemical dosage 12.5 g/a) | Herbicidal effects Broad leaf ([3]; chemical dosage 25 g/a) | Herbicidal effects Scirpus joncoides ([4]; chemical dosage 12.5 g/a) | Herbicidal effects Scirpus joncoides ([4]; chemical dosage 25 g/a) | Crop injury against transplanted rice ([5]; chemical dosage 12.5 g/a) | Crop injury against transplanted rice ([5]; chemical dosage 25 g/a) | Herbicidal effects Cyperus serotinus ([1]; chemical dosage 10 g/a) | Herbicidal effects Cyperus serotinus ([1]; chemical dosage 20 g/a) | Herbicidal effects Barnyard grass ([2]; chemical dosage 10 g/a) | Herbicidal effects Barnyard grass ([2]; chemical dosage 20 g/a) | Herbicidal effects Broad leaf ([3]; chemical dosage 10 g/a) | Herbicidal effects Broad leaf ([3]; chemical dosage 20 g/a) | Herbicidal effects Scirpus joncoides ([4]; chemical dosage 10 g/a) | Herbicidal effects Scirpus joncoides ([4]; chemical dosage 20 g/a) | Crop injury against transplanted rice ([5]; chemical dosage 10 g/a) | Crop injury against transplanted rice ([5]; chemical dosage 20 g/a)
1 | CCCc1c(C)cc(C)cc1Oc1nnc(Cl)cc1O [Example 287] | 1 (Growth inhibition rate; 11 to 30%) | 3 (Growth inhibition rate; 51 to 70%) | 0 (Growth inhibition rate; 0 to 10%) | 0 (Growth inhibition rate; 0 to 10%) | 5 (Growth inhibition rate; 91 to 100%) | 5 (Growth inhibition rate; 91 to 100%) | 5 (Growth inhibition rate; 91 to 100%) | 5 (Growth inhibition rate; 91 to 100%) | 0 (Growth inhibition rate; 0 to 10%) | 0 (Growth inhibition rate; 0 to 10%) | – | – | – | – | – | – | – | – | – | –
2 | Cc1cccc(C(C)C)c1Oc1nnc(Cl)cc1O [Example 261] | – | – | – | – | – | – | – | – | – | – | 5 (Growth inhibition rate; 91 to 100%) | 5 (Growth inhibition rate; 91 to 100%) | 2 (Growth inhibition rate; 31 to 50%) | 2 (Growth inhibition rate; 31 to 50%) | 5 (Growth inhibition rate; 91 to 100%) | 5 (Growth inhibition rate; 91 to 100%) | 4 (Growth inhibition rate; 71 to 90%) | 5 (Growth inhibition rate; 91 to 100%) | 0 (Growth inhibition rate; 0 to 10%) | 0 (Growth inhibition rate; 0 to 10%)
3 | CC(C)c1cccc(F)c1Oc1nnc(Cl)cc1O [Example 235] | – | – | – | – | – | – | – | – | – | – | 5 (Growth inhibition rate; 91 to 100%) | 5 (Growth inhibition rate; 91 to 100%) | 3 (Growth inhibition rate; 51 to 70%) | 3 (Growth inhibition rate; 51 to 70%) | 5 (Growth inhibition rate; 91 to 100%) | 5 (Growth inhibition rate; 91 to 100%) | 5 (Growth inhibition rate; 91 to 100%) | 5 (Growth inhibition rate; 91 to 100%) | 0 (Growth inhibition rate; 0 to 10%) | 0 (Growth inhibition rate; 0 to 10%)
4 | Cc1cc(C)cc(Oc2nnc(Cl)cc2O)c1 [Example 281] | 5 (Growth inhibition rate; 91 to 100%) | 5 (Growth inhibition rate; 91 to 100%) | 0 (Growth inhibition rate; 0 to 10%) | 0 (Growth inhibition rate; 0 to 10%) | 5 (Growth inhibition rate; 91 to 100%) | 5 (Growth inhibition rate; 91 to 100%) | 2 (Growth inhibition rate; 31 to 50%) | 3 (Growth inhibition rate; 51 to 70%) | 0 (Growth inhibition rate; 0 to 10%) | 0 (Growth inhibition rate; 0 to 10%) | – | – | – | – | – | – | – | – | – | –
5 | Cc1cc(C)c(Br)c(Oc2nnc(Cl)cc2O)c1 [Example 285] | – | – | – | – | – | – | – | – | – | – | 2 (Growth inhibition rate; 31 to 50%) | 3 (Growth inhibition rate; 51 to 70%) | 0 (Growth inhibition rate; 0 to 10%) | 0 (Growth inhibition rate; 0 to 10%) | 5 (Growth inhibition rate; 91 to 100%) | 5 (Growth inhibition rate; 91 to 100%) | 4 (Growth inhibition rate; 71 to 90%) | 5 (Growth inhibition rate; 91 to 100%) | 0 (Growth inhibition rate; 0 to 10%) | 0 (Growth inhibition rate; 0 to 10%)
6 | O=C(Oc1cc(Cl)nnc1Oc1ccccc1C1CC1)C1CC1 [Example 327] | – | – | – | – | – | – | – | – | – | – | 5 (Growth inhibition rate; 91 to 100%) | 5 (Growth inhibition rate; 91 to 100%) | 4 (Growth inhibition rate; 71 to 90%) | 4 (Growth inhibition rate; 71 to 90%) | 5 (Growth inhibition rate; 91 to 100%) | 5 (Growth inhibition rate; 91 to 100%) | 5 (Growth inhibition rate; 91 to 100%) | 5 (Growth inhibition rate; 91 to 100%) | 0 (Growth inhibition rate; 0 to 10%) | 0 (Growth inhibition rate; 0 to 10%)
7 | COc1cccc(Br)c1Oc1nnc(Cl)cc1O [Example 255] | – | – | – | – | – | – | – | – | – | – | 5 (Growth inhibition rate; 91 to 100%) | 5 (Growth inhibition rate; 91 to 100%) | 5 (Growth inhibition rate; 91 to 100%) | 5 (Growth inhibition rate; 91 to 100%) | 5 (Growth inhibition rate; 91 to 100%) | 5 (Growth inhibition rate; 91 to 100%) | 4 (Growth inhibition rate; 71 to 90%) | 4 (Growth inhibition rate; 71 to 90%) | 0 (Growth inhibition rate; 0 to 10%) | 2 (Growth inhibition rate; 31 to 50%)
8 | COc1cccc(C2CC2)c1Oc1nnc(Cl)cc1O [Example 276] | – | – | – | – | – | – | – | – | – | – | 5 (Growth inhibition rate; 91 to 100%) | 5 (Growth inhibition rate; 91 to 100%) | 3 (Growth inhibition rate; 51 to 70%) | 4 (Growth inhibition rate; 71 to 90%) | 5 (Growth inhibition rate; 91 to 100%) | 5 (Growth inhibition rate; 91 to 100%) | 3 (Growth inhibition rate; 51 to 70%) | 4 (Growth inhibition rate; 71 to 90%) | 0 (Growth inhibition rate; 0 to 10%) | 0 (Growth inhibition rate; 0 to 10%)
9 | CSc1c(C)cc(C)cc1Oc1nnc(Cl)cc1O [Example 289] | 4 (Growth inhibition rate; 71 to 90%) | 5 (Growth inhibition rate; 91 to 100%) | 0 (Growth inhibition rate; 0 to 10%) | 0 (Growth inhibition rate; 0 to 10%) | 4 (Growth inhibition rate; 71 to 90%) | 5 (Growth inhibition rate; 91 to 100%) | 4 (Growth inhibition rate; 71 to 90%) | 5 (Growth inhibition rate; 91 to 100%) | 0 (Growth inhibition rate; 0 to 10%) | 0 (Growth inhibition rate; 0 to 10%) | – | – | – | – | – | – | – | – | – | –
10 | O=C(Oc1cc(Cl)nnc1Oc1ccccc1C1CC1)c1ccccc1 [Example 329] | – | – | – | – | – | – | – | – | – | – | 5 (Growth inhibition rate; 91 to 100%) | 5 (Growth inhibition rate; 91 to 100%) | 2 (Growth inhibition rate; 31 to 50%) | 4 (Growth inhibition rate; 71 to 90%) | 5 (Growth inhibition rate; 91 to 100%) | 5 (Growth inhibition rate; 91 to 100%) | 5 (Growth inhibition rate; 91 to 100%) | 5 (Growth inhibition rate; 91 to 100%) | 0 (Growth inhibition rate; 0 to 10%) | 0 (Growth inhibition rate; 0 to 10%)
11 | Oc1cc(Cl)nnc1Oc1cccc2c1OCO2 [Example 192] | – | – | – | – | – | – | – | – | – | – | 5 (Growth inhibition rate; 91 to 100%) | 5 (Growth inhibition rate; 91 to 100%) | 2 (Growth inhibition rate; 31 to 50%) | 5 (Growth inhibition rate; 91 to 100%) | 2 (Growth inhibition rate; 31 to 50%) | 3 (Growth inhibition rate; 51 to 70%) | 5 (Growth inhibition rate; 91 to 100%) | 5 (Growth inhibition rate; 91 to 100%) | 0 (Growth inhibition rate; 0 to 10%) | 1 (Growth inhibition rate; 11 to 30%)
